This is an account of results in ChEMBL document CHEMBL4627276, “CT2-3, a novel magnolol analogue suppresses NSCLC cells through triggering cell cycle arrest and apoptosis” (Bioorg Med Chem, 2020).

Calls of active or inactive are those of the source. The calls are words filed in the database; no cut-off is given here.

The test system of series [1] is A549. The series is described as follows: Inhibition of colony formation in human A549 cells at 20 uM incubated for 48 hrs and measured after 10 days culturing in normal media by Giemsa staining based inverted microscopy. The class given is functional, cell-based.
For series [2], the system named is A549. The series is described as follows: Antiproliferative activity against human A549 cells assessed as inhibition of cell viability incubated for 24 hrs by CCK-8 assay. The settings on record: for IC50: A549, 24 h. The class given is functional, cell-based.
Series [3] concerns NCI-H460. The series is described as follows: Antiproliferative activity against human H460 cells assessed as inhibition of cell viability at 40 uM incubated for 24 hrs by CCK-8 assay. Type of series: functional, cell-based.
In series [4] the test system is NCI-H460. In words: Inhibition of colony formation in human H460 cells at 20 uM incubated for 48 hrs and measured after 10 days culturing in normal media by Giemsa staining based inverted microscopy. The class given is functional, cell-based.
Series [5] concerns A549. The series is described as follows: Antiproliferative activity against human A549 cells assessed as inhibition of cell viability at 40 uM incubated for 24 hrs by CCK-8 assay. The class given is functional, cell-based. (In general: Tetrazolium dyes change colour on reduction, which living cells bring about.)
Series [6] has as its system NCI-H460. In words: Antiproliferative activity against human H460 cells assessed as inhibition of cell viability incubated for 24 hrs by CCK-8 assay. The settings on record: for IC50: NCI-H460, 24 h. Type of series: functional, cell-based.
The test system of series [7] is A549. In words: Antiproliferative activity against human A549 cells assessed as cell viability at 40 uM incubated for 24 hrs by CCK-8 assay. Type of series: functional. Conditions: A549, 24 h, read-out: Activity.
In series [8] the test system is A549. In words: Induction of apoptosis in human A549 cells assessed as necrotic cell at 20 uM incubated for 24 hrs by Annexin V-FITC/propidium iodide staining based flow cytometric method (reference value: 2.4%). The class given is functional. (In general: In flow cytometry, cells or beads pass a laser one at a time.)
Series [9] relates to A549. In words: Induction of apoptosis in human A549 cells assessed as early apoptotic cells at 20 uM incubated for 24 hrs by Annexin V-FITC/propidium iodide staining based flow cytometric method (reference value: 0.3%). The class given is functional.
The subject of series [10] is A549. The series is described as follows: Induction of apoptosis in human A549 cells assessed as live cells at 40 uM incubated for 24 hrs by Annexin V-FITC/propidium iodide staining based flow cytometric method (reference value: 95.6%). Type of series: functional.
The subject of series [11] is A549. The series is described as follows: Induction of ROS generation in human A549 cells incubated for 24 hrs by DCFH-DA staining based fluorescence microscopy. Type of series: functional, cell-based.
In series [12] the test system is NCI-H460. In words: Downregulation of TOP2B protein expression in human H460 cells at 40 uM incubated for 24 hrs by western blot analysis. Type of series: functional, cell-based. In general terms: In western blotting, separated proteins are transferred to a membrane and probed.
Series [13] is described as follows: Cytotoxicity against mouse MFF cells assessed as inhibition of cell viability after 24 hrs. Type of series: cell-based.
Series [14] deals with NCI-H460. In words: Cell cycle arrest in human H460 cells assessed as accumulation of cells at G1 phase at 40 uM incubated for 24 hrs by PI staining based flow cytometric analysis. The class given is functional.
Series [15] has as its system NCI-H460. In words: Induction of apoptosis in human H460 cells assessed as live cells at 20 uM incubated for 24 hrs by Annexin V-FITC/propidium iodide staining based flow cytometric method (reference value: 91.2%). Type of series: functional.
Series [16] relates to A549. The series is described as follows: Induction of apoptosis in human A549 cells assessed as live cells at 20 uM incubated for 24 hrs by Annexin V-FITC/propidium iodide staining based flow cytometric method (reference value: 95.6%). The class given is functional.
In series [17] the test system is NCI-H460. The series is described as follows: Downregulation of Cyclin D1 mRNA expression in human H460 cells at 40 uM after 24 hrs by RT-qPCR analysis. Type of series: functional, cell-based.
The subject of series [18] is NCI-H460. The series is described as follows: Downregulation of TOP3B mRNA expression in human H460 cells incubated for 24 hrs by RT-qPCR analysis. Type of series: functional, cell-based.
For series [19], the system named is NCI-H460. The series is described as follows: Induction of apoptosis in human H460 cells assessed as early apoptotic cells at 20 uM incubated for 24 hrs by Annexin V-FITC/propidium iodide staining based flow cytometric method (reference value: 2.4%). The class given is functional.
For series [20], the system named is NCI-H460. In words: Induction of apoptosis in human H460 cells assessed as late apoptotic cells at 40 uM incubated for 24 hrs by Annexin V-FITC/propidium iodide staining based flow cytometric method (reference value: 4.3%). Type of series: functional.
The subject of series [21] is NCI-H460. In words: Induction of apoptosis in human H460 cells assessed as early apoptotic cells at 40 uM incubated for 24 hrs by Annexin V-FITC/propidium iodide staining based flow cytometric method (reference value: 2.4%). The class given is functional.
The test system of series [22] is NCI-H460. The series is described as follows: Downregulation of CDK4 mRNA expression in human H460 cells at 40 uM after 24 hrs by RT-qPCR analysis. Type of series: functional, cell-based.
Series [23] deals with NCI-H460. The series is described as follows: Induction of ROS generation in human H460 cells incubated for 24 hrs by DCFH-DA staining based fluorescence microscopy. Type of series: functional, cell-based.
Series [24] has as its system NCI-H460. In words: Downregulation of c-Myc protein expression level in human H460 cells at 40 uM incubated for 24 hrs by western blot analysis. The class given is functional, cell-based.
Series [25] relates to A549. In words: Induction of apoptosis in human A549 cells assessed as late apoptotic cells at 20 uM incubated for 24 hrs by Annexin V-FITC/propidium iodide staining based flow cytometric method (reference value: 1.7%). Type of series: functional.
For series [26], the system named is NCI-H460. In words: Induction of apoptosis in human H460 cells assessed as late apoptotic cells at 20 uM incubated for 24 hrs by Annexin V-FITC/propidium iodide staining based flow cytometric method (reference value: 4.3%). Type of series: functional.
Series [27] has as its system A549. In words: Induction of apoptosis in human A549 cells assessed as late apoptotic cells at 40 uM incubated for 24 hrs by Annexin V-FITC/propidium iodide staining based flow cytometric method (reference value: 1.7%). The class given is functional.
Series [28] has as its system NCI-H460. In words: Antiproliferative activity against human H460 cells assessed as cell viability at 40 uM incubated for 24 hrs by CCK-8 assay. The class given is functional. The settings on record: NCI-H460, 24 h, read-out: Activity.
The test system of series [29] is NCI-H460. In words: Induction of apoptosis in human H460 cells assessed as live cells at 40 uM incubated for 24 hrs by Annexin V-FITC/propidium iodide staining based flow cytometric method (reference value: 91.2%). The class given is functional.
The test system of series [30] is NCI-H460. In words: Induction of apoptosis in human H460 cells assessed as necrotic cell at 40 uM incubated for 24 hrs by Annexin V-FITC/propidium iodide staining based flow cytometric method (reference value: 2.1%). Type of series: functional.
The subject of series [31] is NCI-H460. The series is described as follows: Downregulation of TOP2B mRNA expression in human H460 cells incubated for 24 hrs by RT-qPCR analysis. The class given is functional, cell-based.
In series [32] the test system is A549. In words: Induction of apoptosis in human A549 cells assessed as early apoptotic cells at 40 uM incubated for 24 hrs by Annexin V-FITC/propidium iodide staining based flow cytometric method (reference value: 0.3%). Type of series: functional.
The subject of series [33] is NCI-H460. The series is described as follows: Downregulation of TOP3B protein expression in human H460 cells at 40 uM incubated for 24 hrs by western blot analysis. The class given is functional, cell-based.
Series [34] has as its system A549. In words: Induction of apoptosis in human A549 cells assessed as necrotic cell at 40 uM incubated for 24 hrs by Annexin V-FITC/propidium iodide staining based flow cytometric method (reference value: 2.4%). Type of series: functional.
In series [35] the test system is NCI-H460. In words: Downregulation of c-Myc mRNA expression level in human H460 cells incubated for 24 hrs by RT-qPCR analysis. The class given is functional, cell-based.
For series [36], the system named is NCI-H460. The series is described as follows: Downregulation of CDK6 mRNA expression in human H460 cells at 40 uM after 24 hrs by RT-qPCR analysis. The class given is functional, cell-based.
Series [37] concerns NCI-H460. The series is described as follows: Induction of apoptosis in human H460 cells assessed as necrotic cell at 20 uM incubated for 24 hrs by Annexin V-FITC/propidium iodide staining based flow cytometric method (reference value: 2.1%). The class given is functional.

For orientation: IC50 means the point on the concentration scale where inhibition reaches its midpoint. Consider `C=CCc1ccc(O)c(-c2cc(CC=C)ccc2O)c1` [MAGNOLOL], for which the inhibition result with A549 [1] and in the series on NCI-H460 [4] was “inactive” each time. The IC50 in the series with A549 [2] and in the series on NCI-H460 [6] was > 80 µM throughout. The result with NCI-H460 [3] and in the series with A549 [5] was inactive.

As to `C=CCc1ccc(O)c(-c2cc(CC=C)ccc2OCCSCCCCN2C(=O)c3ccccc3C2=O)c1`, the outcome in the series with NCI-H460 [3] and in the series on A549 [5] was inactive.

On to `C=CCc1ccc(O)c(-c2cc(CC=C)ccc2OCCS(=O)(=O)CCCCN2C(=O)c3ccccc3C2=O)c1`, for which the outcome with NCI-H460 [3] and with A549 [5] was inactive.

As for `C=CCc1ccc(O)c(-c2cc(CC=C)ccc2OCC[S+]([O-])CCCCN2C(=O)c3ccccc3C2=O)c1` (configuration not stated), the viability at 40 µM in the series on A549 [7] is 51%; in the series on NCI-H460 [28], 48.4%. Moreover, the Activity was 3% in the series with A549 [8]; 1.9% in the series with A549 [9]; 56.7% with A549 [10]; “Dose-dependent effect” in the series with A549 [11]; “Non-Toxic” in series [13]; 66.7% with NCI-H460 [15]. The Activity with A549 [16] was 83.2%; in the series on NCI-H460 [19] it was 6.8%; in the series on NCI-H460 [20] it was 38.1%; with NCI-H460 [21], 5.7%; in the series with NCI-H460 [23], “Dose-dependent effect”; in the series on A549 [25], 11.9%. Further, the Activity with NCI-H460 [26] came out at 18.6%; in the series on A549 [27], 34.5%; with NCI-H460 [29] it was 46.6%; with NCI-H460 [30], 9.6%; in the series on A549 [32], 0.8%; with A549 [34], 8%. Besides, the Activity in the series on NCI-H460 [37] worked out at 7.9%. Also, the inhibition entry in the series with NCI-H460 [12], with A549 [1], with NCI-H460 [17], in the series on NCI-H460 [18], in the series on NCI-H460 [22] and with NCI-H460 [24] was “Active” throughout. The inhibition entry in the series on NCI-H460 [31], in the series on NCI-H460 [33], in the series on NCI-H460 [4], in the series with NCI-H460 [35] and with NCI-H460 [36] was “Active” each time. For the same molecule, the outcome in the series with NCI-H460 [14] was Active. Besides, the inhibition result in the series with A549 [2] and in the series on NCI-H460 [6] was “Dose-dependent effect” throughout. In addition, the results for the IC50 in the series with A549 [2] and with NCI-H460 [6] were 41.6 µM and 38 µM, respectively.
